Measurements from article PMC8098682 (Chemical Science, 2021).

Molecular target: T1, isocitrate lyase (ICL) (Salmonella enterica, UniProt P51066)
T1 sequence (P51066 1-434): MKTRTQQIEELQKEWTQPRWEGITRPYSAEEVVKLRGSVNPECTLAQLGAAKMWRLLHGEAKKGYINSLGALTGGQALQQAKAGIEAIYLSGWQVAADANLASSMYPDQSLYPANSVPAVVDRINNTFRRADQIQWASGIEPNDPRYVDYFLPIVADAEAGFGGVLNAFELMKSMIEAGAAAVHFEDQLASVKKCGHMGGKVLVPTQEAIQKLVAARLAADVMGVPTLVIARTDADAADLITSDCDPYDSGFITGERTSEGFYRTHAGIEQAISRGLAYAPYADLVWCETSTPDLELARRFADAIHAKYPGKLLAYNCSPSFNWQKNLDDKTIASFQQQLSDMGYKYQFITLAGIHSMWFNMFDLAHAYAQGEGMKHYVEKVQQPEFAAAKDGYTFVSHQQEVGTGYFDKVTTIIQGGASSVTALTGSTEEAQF
Test: enzyme activity assay of purified ICL
Type: biochemical

Work on C=C(CC(=O)O)C(=O)O [ITA, itaconate] yielded an IC50 of ~2600 µM.
